Data as given in ChEMBL document CHEMBL1152576, “E-Combretastatin and E-resveratrol structural modifications: antimicrobial and cancer cell growth inhibitory beta-E-nitrostyrenes” (Bioorg Med Chem, 2009).
Converted amounts (≈) assume the structure as drawn. The source made the active and inactive calls. No cut-off for these calls is given here.

Test system: KM-20L2
Experiment: Cytotoxicity against human KM20L2 cells after 48 hrs by sulforhodamine B assay
Type: functional
Conditions: KM-20L2, 48 h

| Compound | GI50 |
| --- | --- |
| COc1cc(/C=C/[N+](=O)[O-])ccc1O | 1.1 µg/mL (≈ 5.64 µM) |
| O=[N+]([O-])/C=C/c1ccc(O)cc1 | 1.5 µg/mL (≈ 9.08 µM) |

Test system: Micrococcus luteus
Experiment: Antimicrobial activity against Micrococcus luteus Presque Isle 456 by broth microdilution susceptibility assay
Type: functional
Conditions: not given

| Compound | MIC |
| --- | --- |
| COc1cc(/C=C/[N+](=O)[O-])ccc1O | > 64 µg/mL |
| O=[N+]([O-])/C=C/c1ccc(O)cc1 | > 64 µg/mL |

Test system: Stenotrophomonas maltophilia
Experiment: Antimicrobial activity against Stenotrophomonas maltophilia ATCC 13637 assessed clear zone in inhibition per disk by CLSI disk diffusion susceptibility assay
Type: functional
Conditions: not given

| Compound | MIC |
| --- | --- |
| COc1cc(/C=C/[N+](=O)[O-])ccc1O | 50 µg |
| O=[N+]([O-])/C=C/c1ccc(O)cc1 | 6.25 µg |

Test system: NCI-H460
Experiment: Cytotoxicity against human NCI-H460 cells after 48 hrs by sulforhodamine B assay
Type: functional
Conditions: NCI-H460, 48 h

| Compound | GI50 |
| --- | --- |
| COc1cc(/C=C/[N+](=O)[O-])ccc1O | 0.34 µg/mL (≈ 1.74 µM) |
| O=[N+]([O-])/C=C/c1ccc(O)cc1 | 1.7 µg/mL (≈ 10.3 µM) |

Test system: OVCAR-3
Experiment: Cytotoxicity against human OVCAR-3 cells after 48 hrs by sulforhodamine B assay
Type: functional
Conditions: not given

| Compound | GI50 |
| --- | --- |
| O=[N+]([O-])/C=C/c1ccc(O)cc1 | inactive |

Same assay, conditions: OVCAR-3, 48 h

| Compound | GI50 |
| --- | --- |
| COc1cc(/C=C/[N+](=O)[O-])ccc1O | 0.48 µg/mL (≈ 2.46 µM) |

Test system: Candida albicans
Experiment: Antifungal activity against Candida albicans ATCC 90028 after 24 hrs by broth microdilution susceptibility assay
Type: functional
Conditions: ATCC 90028, 24 h

| Compound | MFC |
| --- | --- |
| COc1cc(/C=C/[N+](=O)[O-])ccc1O | 16 µg/mL (≈ 82 µM) |
| O=[N+]([O-])/C=C/c1ccc(O)cc1 | 16 µg/mL (≈ 96.9 µM) |

Test system: Enterococcus faecalis
Experiment: Antimicrobial activity against Enterococcus faecalis ATCC 29212 by broth microdilution susceptibility assay
Type: functional
Conditions: not given

| Compound | MIC |
| --- | --- |
| COc1cc(/C=C/[N+](=O)[O-])ccc1O | > 64 µg/mL |
| O=[N+]([O-])/C=C/c1ccc(O)cc1 | > 64 µg/mL |

Test system: Candida albicans
Experiment: Antimicrobial activity against Candida albicans ATCC 90028 assessed clear zone in inhibition per disk by CLSI disk diffusion susceptibility assay
Type: functional
Conditions: not given

| Compound | MIC |
| --- | --- |
| COc1cc(/C=C/[N+](=O)[O-])ccc1O | 6.25 µg |
| O=[N+]([O-])/C=C/c1ccc(O)cc1 | 12.5 µg |

Test system: Streptococcus pneumoniae
Experiment: Antimicrobial activity against Streptococcus pneumoniae ATCC 6303 by broth microdilution susceptibility assay
Type: functional
Conditions: not given

| Compound | MIC |
| --- | --- |
| COc1cc(/C=C/[N+](=O)[O-])ccc1O | > 64 µg/mL |
| O=[N+]([O-])/C=C/c1ccc(O)cc1 | 64 µg/mL (≈ 388 µM) |

Test system: Escherichia coli
Experiment: Antimicrobial activity against Escherichia coli ATCC 25922 assessed clear zone in inhibition per disk by CLSI disk diffusion susceptibility assay
Type: functional
Conditions: not given

| Compound | MIC |
| --- | --- |
| COc1cc(/C=C/[N+](=O)[O-])ccc1O | 6.25 µg |
| O=[N+]([O-])/C=C/c1ccc(O)cc1 | 12.5 µg |

Test system: SF-268
Experiment: Cytotoxicity against human SF268 cells after 48 hrs by sulforhodamine B assay
Type: functional
Conditions: not given

| Compound | GI50 |
| --- | --- |
| COc1cc(/C=C/[N+](=O)[O-])ccc1O | inactive |
| O=[N+]([O-])/C=C/c1ccc(O)cc1 | inactive |

Test system: Staphylococcus aureus
Experiment: Antimicrobial activity against Staphylococcus aureus ATCC 29213 assessed clear zone in inhibition per disk by CLSI disk diffusion susceptibility assay
Type: functional
Conditions: not given

| Compound | MIC |
| --- | --- |
| COc1cc(/C=C/[N+](=O)[O-])ccc1O | 12.5 µg |
| O=[N+]([O-])/C=C/c1ccc(O)cc1 | 50 µg |

Test system: Cryptococcus neoformans
Experiment: Antifungal activity against Cryptococcus neoformans ATCC 90112 after 72 hrs by broth microdilution susceptibility assay
Type: functional
Conditions: ATCC 90112, 72 h

| Compound | MIC |
| --- | --- |
| COc1cc(/C=C/[N+](=O)[O-])ccc1O | 16 µg/mL (≈ 82 µM) |
| O=[N+]([O-])/C=C/c1ccc(O)cc1 | 8 µg/mL (≈ 48.4 µM) |

Test system: BXPC-3
Experiment: Cytotoxicity against human BxPC3 cells after 48 hrs by sulforhodamine B assay
Type: functional
Conditions: BXPC-3, 48 h

| Compound | GI50 |
| --- | --- |
| COc1cc(/C=C/[N+](=O)[O-])ccc1O | 1.2 µg/mL (≈ 6.15 µM) |
| O=[N+]([O-])/C=C/c1ccc(O)cc1 | 1.6 µg/mL (≈ 9.69 µM) |

Test system: Enterobacter cloacae
Experiment: Antimicrobial activity against Enterobacter cloacae ATCC 13047 assessed clear zone in inhibition per disk by CLSI disk diffusion susceptibility assay
Type: functional
Conditions: not given

| Compound | MIC |
| --- | --- |
| COc1cc(/C=C/[N+](=O)[O-])ccc1O | >100 µg |
| O=[N+]([O-])/C=C/c1ccc(O)cc1 | 25 µg |

Test system: Neisseria gonorrhoeae
Experiment: Antimicrobial activity against Neisseria gonorrhoeae ATCC 49226 by broth microdilution susceptibility assay
Type: functional
Conditions: not given

| Compound | MIC |
| --- | --- |
| COc1cc(/C=C/[N+](=O)[O-])ccc1O | 4 µg/mL (≈ 20.5 µM) |
| O=[N+]([O-])/C=C/c1ccc(O)cc1 | 4 µg/mL (≈ 24.2 µM) |

Test system: Neisseria gonorrhoeae
Experiment: Antimicrobial activity against Neisseria gonorrhoeae ATCC 49226 after 24 hrs by broth microdilution susceptibility assay
Type: functional
Conditions: ATCC 49226, 24 h

| Compound | MBC |
| --- | --- |
| COc1cc(/C=C/[N+](=O)[O-])ccc1O | 4 µg/mL (≈ 20.5 µM) |
| O=[N+]([O-])/C=C/c1ccc(O)cc1 | 4 µg/mL (≈ 24.2 µM) |

Test system: Streptococcus pneumoniae
Experiment: Antimicrobial activity against Streptococcus pneumoniae ATCC 6303 assessed clear zone in inhibition per disk by CLSI disk diffusion susceptibility assay
Type: functional
Conditions: not given

| Compound | MIC |
| --- | --- |
| COc1cc(/C=C/[N+](=O)[O-])ccc1O | 3.12 µg |
| O=[N+]([O-])/C=C/c1ccc(O)cc1 | 6.25 µg |

Test system: Enterobacter cloacae
Experiment: Antimicrobial activity against Enterobacter cloacae ATCC 13047 by broth microdilution susceptibility assay
Type: functional
Conditions: not given

| Compound | MIC |
| --- | --- |
| COc1cc(/C=C/[N+](=O)[O-])ccc1O | > 64 µg/mL |
| O=[N+]([O-])/C=C/c1ccc(O)cc1 | > 64 µg/mL |

Test system: Cryptococcus neoformans
Experiment: Antifungal activity against Cryptococcus neoformans ATCC 90112 after 48 hrs by broth microdilution susceptibility assay
Type: functional
Conditions: ATCC 90112, 48 h

| Compound | MFC |
| --- | --- |
| COc1cc(/C=C/[N+](=O)[O-])ccc1O | 16 µg/mL (≈ 82 µM) |
| O=[N+]([O-])/C=C/c1ccc(O)cc1 | 8 µg/mL (≈ 48.4 µM) |

Test system: A498
Experiment: Cytotoxicity against human A498 cells after 48 hrs by sulforhodamine B assay
Type: functional
Conditions: not given

| Compound | GI50 |
| --- | --- |
| COc1cc(/C=C/[N+](=O)[O-])ccc1O | inactive |
| O=[N+]([O-])/C=C/c1ccc(O)cc1 | inactive |

Test system: Stenotrophomonas maltophilia
Experiment: Antimicrobial activity against Stenotrophomonas maltophilia ATCC 13637 by broth microdilution susceptibility assay
Type: functional
Conditions: not given

| Compound | MIC |
| --- | --- |
| COc1cc(/C=C/[N+](=O)[O-])ccc1O | > 64 µg/mL |
| O=[N+]([O-])/C=C/c1ccc(O)cc1 | > 64 µg/mL |

Test system: Staphylococcus aureus
Experiment: Antimicrobial activity against Staphylococcus aureus ATCC 29213 by broth microdilution susceptibility assay
Type: functional
Conditions: not given

| Compound | MIC |
| --- | --- |
| COc1cc(/C=C/[N+](=O)[O-])ccc1O | > 64 µg/mL |
| O=[N+]([O-])/C=C/c1ccc(O)cc1 | > 64 µg/mL |

Test system: P388
Experiment: Cytotoxicity against mouse P388 cells after 48 hrs by sulforhodamine B assay
Type: functional
Conditions: P388, 48 h, read-out: ED50 (the source's name)

| Compound | EC50 |
| --- | --- |
| COc1cc(/C=C/[N+](=O)[O-])ccc1O | 0.18 µg/mL (≈ 0.922 µM) |
| O=[N+]([O-])/C=C/c1ccc(O)cc1 | 1.5 µg/mL (≈ 9.08 µM) |

Test system: Candida albicans
Experiment: Antifungal activity against Candida albicans ATCC 90028 after 48 hrs by broth microdilution susceptibility assay
Type: functional
Conditions: ATCC 90028, 48 h

| Compound | MIC |
| --- | --- |
| COc1cc(/C=C/[N+](=O)[O-])ccc1O | 16 µg/mL (≈ 82 µM) |
| O=[N+]([O-])/C=C/c1ccc(O)cc1 | 16 µg/mL (≈ 96.9 µM) |

Test system: Micrococcus luteus
Experiment: Antimicrobial activity against Micrococcus luteus Presque Isle 456 assessed clear zone in inhibition per disk by CLSI disk diffusion susceptibility assay
Type: functional
Conditions: not given

| Compound | MIC |
| --- | --- |
| COc1cc(/C=C/[N+](=O)[O-])ccc1O | 50 µg |
| O=[N+]([O-])/C=C/c1ccc(O)cc1 | >100 µg |

Test system: SF-295
Experiment: Cytotoxicity against human SF295 cells after 48 hrs by sulforhodamine B assay
Type: functional
Conditions: SF-295, 48 h

| Compound | GI50 |
| --- | --- |
| COc1cc(/C=C/[N+](=O)[O-])ccc1O | 0.37 µg/mL (≈ 1.9 µM) |
| O=[N+]([O-])/C=C/c1ccc(O)cc1 | 1.7 µg/mL (≈ 10.3 µM) |

Test system: not listed separately
Experiment: Inhibition of tubulin polymerization
Conditions: not given

| Compound | IC50 |
| --- | --- |
| COc1cc(/C=C/[N+](=O)[O-])ccc1O | 9.3 µM |
| O=[N+]([O-])/C=C/c1ccc(O)cc1 | 10 µM |

Test system: Neisseria gonorrhoeae
Experiment: Antimicrobial activity against Neisseria gonorrhoeae ATCC 49226 assessed clear zone of inhibition measured per disk by CLSI disk diffusion susceptibility assay
Type: functional
Conditions: not given

| Compound | MIC |
| --- | --- |
| COc1cc(/C=C/[N+](=O)[O-])ccc1O | 0.78 µg |
| O=[N+]([O-])/C=C/c1ccc(O)cc1 | <0.78 µg |

Test system: SK-MEL-5
Experiment: Cytotoxicity against human SK-MEL-5 cells after 48 hrs by sulforhodamine B assay
Type: functional
Conditions: not given

| Compound | GI50 |
| --- | --- |
| COc1cc(/C=C/[N+](=O)[O-])ccc1O | inactive |
| O=[N+]([O-])/C=C/c1ccc(O)cc1 | inactive |

Test system: Enterococcus faecalis
Experiment: Antimicrobial activity against Enterococcus faecalis ATCC 29212 assessed clear zone in inhibition per disk by CLSI disk diffusion susceptibility assay
Type: functional
Conditions: not given

| Compound | MIC |
| --- | --- |
| COc1cc(/C=C/[N+](=O)[O-])ccc1O | 25 µg |
| O=[N+]([O-])/C=C/c1ccc(O)cc1 | 6.25 µg |

Test system: Cryptococcus neoformans
Experiment: Antimicrobial activity against Cryptococcus neoformans ATCC 90112 assessed clear zone in inhibition per disk by CLSI disk diffusion susceptibility assay
Type: functional
Conditions: not given

| Compound | MIC |
| --- | --- |
| COc1cc(/C=C/[N+](=O)[O-])ccc1O | 3.12 µg |
| O=[N+]([O-])/C=C/c1ccc(O)cc1 | 6.25 µg |

Test system: Escherichia coli
Experiment: Antimicrobial activity against Escherichia coli ATCC 25922 by broth microdilution susceptibility assay
Type: functional
Conditions: not given

| Compound | MIC |
| --- | --- |
| COc1cc(/C=C/[N+](=O)[O-])ccc1O | > 64 µg/mL |
| O=[N+]([O-])/C=C/c1ccc(O)cc1 | > 64 µg/mL |

Test system: MCF7
Experiment: Cytotoxicity against human MCF7 cells after 48 hrs by sulforhodamine B assay
Type: functional
Conditions: not given

| Compound | GI50 |
| --- | --- |
| COc1cc(/C=C/[N+](=O)[O-])ccc1O | inactive |

Same assay, conditions: MCF7, 48 h

| Compound | GI50 |
| --- | --- |
| O=[N+]([O-])/C=C/c1ccc(O)cc1 | 0.48 µg/mL (≈ 2.91 µM) |

Test system: DU-145
Experiment: Cytotoxicity against human DU145 cells after 48 hrs by sulforhodamine B assay
Type: functional
Conditions: DU-145, 48 h

| Compound | GI50 |
| --- | --- |
| COc1cc(/C=C/[N+](=O)[O-])ccc1O | 0.38 µg/mL (≈ 1.95 µM) |
| O=[N+]([O-])/C=C/c1ccc(O)cc1 | 1.5 µg/mL (≈ 9.08 µM) |
